These molecules were tested on MFM-223 (assay: drug sensitivity score (DSS), CellTiter-Glo (DSS (AUC-based score)); higher = stronger drug effect (viability inhibition or cytotoxicity); extreme values may be limits of the assay). Conditions: incubation time: 72 h.
How it was run: (§1)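 Using 20 µl of cell suspension per well, breast cancer cell lines were seeded into 384-well plates pre-loaded with compound at 5 concentrations in 10-fold steps across a compound-specific 10,000-fold range. Incubation lasted 72 h, after which CellTox Green fluorescence at 485/520 nm and then CellTiter-Glo luminescence, following 10 min at room temperature, were recorded. Each plate was normalised to 0.1 % DMSO and a positive kill control before the drug sensitivity score was derived from the area under the fitted dose-response curve.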

Row | SMILES | drug sensitivity score
1 | CN[C@@H]1C[C@H]2O[C@@](C)([C@@H]1OC)n1c3ccccc3c3c4c(c5c6ccccc6n2c5c31)C(=O)N[C@H]4O [UCN-01] | 16.6
2 | C[C@@H](Oc1cc(-c2cnn(C3CCNCC3)c2)cnc1N)c1c(Cl)ccc(F)c1Cl [Crizotinib] | 0
3 | CC1(C)NC(=O)N(c2ccc([N+](=O)[O-])c(C(F)(F)F)c2)C1=O [Nilutamide] | 0
4 | CCCCCCCCCCCCCCCCCCOP(=O)([O-])OC1CC[N+](C)(C)CC1 [Perifosine] | 0
5 | O=C(CCCCCCC(=O)Nc1ccc([C@H]2O[C@@H](CSc3nc(-c4ccccc4)c(-c4ccccc4)o3)C[C@@H](c3ccc(CO)cc3)O2)cc1)NO [Tubacin] | 4.83
6 | O=C(O)c1ccc(-c2c[nH]c3ncc(-c4ccccc4)cc23)cc1C1CCCC1 | 0
7 | N#CCNC(=O)c1ccc(-c2ccnc(Nc3ccc(N4CCOCC4)cc3)n2)cc1 [Momelotinib] | 0
8 | COc1cc2ncnc(Nc3ccc(F)c(Cl)c3)c2cc1NC(=O)/C=C/CN1CCCCC1 [Dacomitinib] | 0
9 | CS(=O)(=O)c1ccc(C2=C(c3ccccc3)C(=O)OC2)cc1 [Rofecoxib] | 0

These molecules were tested on HDQ-P1 in the same assay as above. Conditions: incubation time: 72 h.
How it was run: as §1

Row | SMILES | drug sensitivity score
10 | Oc1nc(-c2ccc(C(F)(F)F)cc2)nc2c1CSCC2 [XAV-939] | 0
11 | NC(=O)Nc1cc(-c2cccc(F)c2)sc1C(=O)N[C@H]1CCCNC1 [AZD7762] | 3.06
12 | N.N.[Cl][Pt][Cl] [Cisplatin] | 0
13 | CN[C@@H]1C[C@H]2O[C@@](C)([C@@H]1OC)n1c3ccccc3c3c4c(c5c6ccccc6n2c5c31)C(=O)N[C@H]4O [UCN-01] | 18.8
14 | C[C@@H](Oc1cc(-c2cnn(C3CCNCC3)c2)cnc1N)c1c(Cl)ccc(F)c1Cl [Crizotinib] | 0
15 | CC1(C)NC(=O)N(c2ccc([N+](=O)[O-])c(C(F)(F)F)c2)C1=O [Nilutamide] | 0
16 | CCCCCCCCCCCCCCCCCCOP(=O)([O-])OC1CC[N+](C)(C)CC1 [Perifosine] | 0
17 | O=C(CCCCCCC(=O)Nc1ccc([C@H]2O[C@@H](CSc3nc(-c4ccccc4)c(-c4ccccc4)o3)C[C@@H](c3ccc(CO)cc3)O2)cc1)NO [Tubacin] | 2.55
18 | O=C(O)c1ccc(-c2c[nH]c3ncc(-c4ccccc4)cc23)cc1C1CCCC1 | 0
19 | N#CCNC(=O)c1ccc(-c2ccnc(Nc3ccc(N4CCOCC4)cc3)n2)cc1 [Momelotinib] | 0
20 | COc1cc2ncnc(Nc3ccc(F)c(Cl)c3)c2cc1NC(=O)/C=C/CN1CCCCC1 [Dacomitinib] | 8.45
21 | CS(=O)(=O)c1ccc(C2=C(c3ccccc3)C(=O)OC2)cc1 [Rofecoxib] | 0

Each molecule was assayed on CAL-148 in the same assay as above. Conditions: incubation time: 72 h.
How it was run: as §1

Row | SMILES | drug sensitivity score
22 | Oc1nc(-c2ccc(C(F)(F)F)cc2)nc2c1CSCC2 [XAV-939] | 0
23 | NC(=O)Nc1cc(-c2cccc(F)c2)sc1C(=O)N[C@H]1CCCNC1 [AZD7762] | 0
24 | N.N.[Cl][Pt][Cl] [Cisplatin] | 0
25 | CN[C@@H]1C[C@H]2O[C@@](C)([C@@H]1OC)n1c3ccccc3c3c4c(c5c6ccccc6n2c5c31)C(=O)N[C@H]4O [UCN-01] | 8.79
26 | C[C@@H](Oc1cc(-c2cnn(C3CCNCC3)c2)cnc1N)c1c(Cl)ccc(F)c1Cl [Crizotinib] | 0
27 | CC1(C)NC(=O)N(c2ccc([N+](=O)[O-])c(C(F)(F)F)c2)C1=O [Nilutamide] | 0
28 | CCCCCCCCCCCCCCCCCCOP(=O)([O-])OC1CC[N+](C)(C)CC1 [Perifosine] | 0
29 | O=C(CCCCCCC(=O)Nc1ccc([C@H]2O[C@@H](CSc3nc(-c4ccccc4)c(-c4ccccc4)o3)C[C@@H](c3ccc(CO)cc3)O2)cc1)NO [Tubacin] | 0.986
30 | O=C(O)c1ccc(-c2c[nH]c3ncc(-c4ccccc4)cc23)cc1C1CCCC1 | 0
31 | N#CCNC(=O)c1ccc(-c2ccnc(Nc3ccc(N4CCOCC4)cc3)n2)cc1 [Momelotinib] | 0
32 | COc1cc2ncnc(Nc3ccc(F)c(Cl)c3)c2cc1NC(=O)/C=C/CN1CCCCC1 [Dacomitinib] | 0
33 | CS(=O)(=O)c1ccc(C2=C(c3ccccc3)C(=O)OC2)cc1 [Rofecoxib] | 0

These molecules were tested on HCC1599 in the same assay as above. Conditions: incubation time: 72 h.
How it was run: as §1

Row | SMILES | drug sensitivity score
34 | Oc1nc(-c2ccc(C(F)(F)F)cc2)nc2c1CSCC2 [XAV-939] | 0
35 | NC(=O)Nc1cc(-c2cccc(F)c2)sc1C(=O)N[C@H]1CCCNC1 [AZD7762] | 6.96
36 | N.N.[Cl][Pt][Cl] [Cisplatin] | 0
37 | CN[C@@H]1C[C@H]2O[C@@](C)([C@@H]1OC)n1c3ccccc3c3c4c(c5c6ccccc6n2c5c31)C(=O)N[C@H]4O [UCN-01] | 27.9
38 | C[C@@H](Oc1cc(-c2cnn(C3CCNCC3)c2)cnc1N)c1c(Cl)ccc(F)c1Cl [Crizotinib] | 0
39 | CC1(C)NC(=O)N(c2ccc([N+](=O)[O-])c(C(F)(F)F)c2)C1=O [Nilutamide] | 0
40 | CCCCCCCCCCCCCCCCCCOP(=O)([O-])OC1CC[N+](C)(C)CC1 [Perifosine] | 0

— the supplement of paper PMC4862054
